From the supplement of paper PMC11208160

assay: recombinant barcode read abundance after kanamycin selection (control-corrected) (log10(CPM+1)); higher = more efficient recombination; sequences stand for … in AGTGCAGAGAAAATCGGCCAGTTTTCTCTGCCTGCAGTCCGCATGCCGT…AGATTTATGCAGCGGACTGCCTTTCTCCCAAAGTGATAAACCGGACAGTATCATGGACCGGTTTTCCCGGTAATCCGTATTTGCAAGGTTGGTTTCACT; site = the 11-nt target
Protocol: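 Pooled E. coli target-specificity screen for the IS621 bridge recombinase. Each library plasmid pairs an 11-nt target (CT core) with a bridge RNA whose target-binding loop (9-nt LTG + 4-nt RTG) is reprogrammed; the rest of the 177-nt WT IS621 bridge RNA scaffold is fixed. The plasmid is co-electroporated with a WT donor plasmid; recombinase is induced with 0.1 mM IPTG and recombinants are selected on kanamycin. Recombinant barcodes are sequenced, converted to CPM, averaged over two biological replicates and corrected by the unselected control CPM. Molecule = full bridge RNA written as DNA: LTG = specificity nt 1-9, RTG = reverse complement of specificity nt 8-11, in the WT scaffold.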
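Note: IS621 recombinase and bridge RNA in Escherichia coli cells.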

Sequence	recombinant barcode read abundance (log10)
ACCGGTCCTTGGGTTCTAACCTGTTGCGT (site ACCGGTCCTAC)	2.14
ACCGGTCCTTGGGTTCTAACCTGTTGCGT (site ATCGTTCCTAC)	0.0193
ACCGTACCTTGGGTTCTAACCTGTTGCCT (site ACCGTACCTAG)	0.304
ACCGTACCTTGGGTTCTAACCTGTTGCCT (site ACCGTAGCTAG)	0.0594
ACCGTTCCTTGGGTTCTAACCTGTTGCCT (site ACCGTTCCTAG)	0.78
ACCGTTCCTTGGGTTCTAACCTGTTGCCT (site CTTTAAGCTTA)	0.0328
ACCTAACCTTGGGTTCTAACCTGTTGCAT (site ACCTAACCTAT)	1.67
ACCTAACCTTGGGTTCTAACCTGTTGCAT (site ATCTATCCTAT)	0.214
ACCTACCCTTGGGTTCTAACCTGTTGCGG (site ACCTACCCTCC)	2.33
ACCTACCCTTGGGTTCTAACCTGTTGCGG (site CGAACATCTAA)	0.169
ACCTACCCTTGGGTTCTAACCTGTTGCGT (site ACATATCCTAC)	0.0563
ACCTACCCTTGGGTTCTAACCTGTTGCGT (site ACCTACCCTAC)	1.54
ACCTACTCTTGGGTTCTAACCTGTTGCCT (site ACCTACGCTAG)	0.0426
ACCTACTCTTGGGTTCTAACCTGTTGCCT (site ACCTACTCTAG)	1.36
ACCTGAACTTGGGTTCTAACCTGTTGCCT (site ACATGAACTAG)	0.056
ACCTGAACTTGGGTTCTAACCTGTTGCCT (site ACCTGAACTAG)	0.75
ACCTGAACTTGGGTTCTAACCTGTTGCCT (site ACGTGAACTAG)	0.0712
ACCTGAACTTGGGTTCTAACCTGTTGCCT (site ACTTGAACTAG)	0.0237
ACCTGTGCTTGGGTTCTAACCTGTTGCCT (site ACCTGTGCTAG)	0.874
ACCTGTGCTTGGGTTCTAACCTGTTGCCT (site ATCTGTTCTAG)	0.151
ACCTTGTCTTGGGTTCTAACCTGTTGCCT (site ACATTGTCTAG)	0.217
ACCTTGTCTTGGGTTCTAACCTGTTGCCT (site ACCTTGTCTAG)	0.93
ACCTTGTCTTGGGTTCTAACCTGTTGCCT (site ACGTTGTCTAG)	0.0273
ACCTTGTCTTGGGTTCTAACCTGTTGCCT (site ACTTTGTCTAG)	0.0709
ACGAACCCTTGGGTTCTAACCTGTTGCCT (site ACGAACCCTAG)	1.42

Sequence	recombinant barcode read abundance (log10)
ACGAACCCTTGGGTTCTAACCTGTTGCCT (site ACGGACCCTAT)	0.247
ACGAAGACTTGGGTTCTAACCTGTTGCCG (site ACGAAGACTCG)	1.08
ACGAAGACTTGGGTTCTAACCTGTTGCCG (site ACGAGGACTCG)	0.0668
ACGACGTCTTGGGTTCTAACCTGTTGCTT (site ACGACGTCTAA)	0.292
ACGACGTCTTGGGTTCTAACCTGTTGCTT (site TCGACGCCTAA)	0.08
ACGACTACTTGGGTTCTAACCTGTTGCCG (site ACGACTACTCG)	0.618
ACGACTACTTGGGTTCTAACCTGTTGCCG (site TATTGGCCTAC)	0.123
ACGATAACTTGGGTTCTAACCTGTTGCCA (site ACGATAACTTG)	0.215
ACGATAACTTGGGTTCTAACCTGTTGCCA (site CTAGATTCTAT)	0.363
ACGATACCTTGGGTTCTAACCTGTTGCCT (site ACGATACCTAG)	0.967
ACGATACCTTGGGTTCTAACCTGTTGCCT (site ACGTTACCTAG)	0.0943
ACGATATCTTGGGTTCTAACCTGTTGCCT (site AAGATATCTAG)	0.181
ACGATATCTTGGGTTCTAACCTGTTGCCT (site ACGATATCTAG)	1.37
ACGATATCTTGGGTTCTAACCTGTTGCCT (site AGGATATCTAG)	0.549
ACGATATCTTGGGTTCTAACCTGTTGCCT (site ATGATATCTAG)	0.0859
ACGATCGCTTGGGTTCTAACCTGTTGCCT (site ACGAACGCTAG)	0.08
ACGATCGCTTGGGTTCTAACCTGTTGCCT (site ACGACCGCTAG)	0.197
ACGATCGCTTGGGTTCTAACCTGTTGCCT (site ACGAGCGCTAG)	0.12
ACGATCGCTTGGGTTCTAACCTGTTGCCT (site ACGATCGCTAG)	1.25
ACGATTCCTTGGGTTCTAACCTGTTGCCT (site AAGATTCCTAG)	0.132
ACGATTCCTTGGGTTCTAACCTGTTGCCT (site ACGATTCCTAG)	0.355
ACGATTCCTTGGGTTCTAACCTGTTGCCT (site AGGATTCCTAG)	0.101
ACGATTCCTTGGGTTCTAACCTGTTGCCT (site ATGATTCCTAG)	0.0978
ACGCACACTTGGGTTCTAACCTGTTGCCT (site ACGCACACTAG)	0.214
ACGCACACTTGGGTTCTAACCTGTTGCCT (site CCGCACACTAG)	0.182

Sequence	recombinant barcode read abundance (log10)
ACGCACACTTGGGTTCTAACCTGTTGCCT (site GCGCACACTAG)	0.236
ACGCACACTTGGGTTCTAACCTGTTGCCT (site TCGCACACTAG)	0.233
ACGCACCCTTGGGTTCTAACCTGTTGCCA (site ACGAGCCCTTG)	0.123
ACGCACCCTTGGGTTCTAACCTGTTGCCA (site ACGCACCCTTG)	0.379
ACGCACGCTTGGGTTCTAACCTGTTGCGG (site ACACACCCTCC)	0.0809
ACGCACGCTTGGGTTCTAACCTGTTGCGG (site ACGCACGCTCC)	0.979
ACGCCGACTTGGGTTCTAACCTGTTGCCT (site ACGCCGACTAG)	0.432
ACGCCGACTTGGGTTCTAACCTGTTGCCT (site ACGCGGACTAG)	0.285
ACGCGAGCTTGGGTTCTAACCTGTTGCCG (site ACGCGAGCTCA)	0.209
ACGCGAGCTTGGGTTCTAACCTGTTGCCG (site ACGCGAGCTCC)	0.345
ACGCGAGCTTGGGTTCTAACCTGTTGCCG (site ACGCGAGCTCG)	0.288
ACGCGAGCTTGGGTTCTAACCTGTTGCCG (site ACGCGAGCTCT)	0.215
ACGCGAGCTTGGGTTCTAACCTGTTGCTG (site ACGCGAGCTCA)	0.0871
ACGCGAGCTTGGGTTCTAACCTGTTGCTG (site ACGCGAGCTCC)	0
ACGCGAGCTTGGGTTCTAACCTGTTGCTG (site ACGCGAGCTCG)	0.14
ACGCGAGCTTGGGTTCTAACCTGTTGCTG (site ACGCGAGCTCT)	0.187
ACGCGTCCTTGGGTTCTAACCTGTTGCCG (site ACGCGTCCTCG)	0.263
ACGCGTCCTTGGGTTCTAACCTGTTGCCG (site TCGCGTCCTCG)	0.355
ACGCTAGCTTGGGTTCTAACCTGTTGCCT (site ACGCTAGCTAG)	0.357
ACGCTAGCTTGGGTTCTAACCTGTTGCCT (site CCGCTAGCTAG)	0.138
ACGCTAGCTTGGGTTCTAACCTGTTGCCT (site GCGCTAGCTAG)	0.226
ACGCTAGCTTGGGTTCTAACCTGTTGCCT (site TCGCTAGCTAG)	0.0462
ACGCTGGCTTGGGTTCTAACCTGTTGCCT (site ACACTGGCTAG)	0.386
